We go through 39 compounds from PubChem BioAssay AID720632 (Broad Institute, 2013).

For this assay, the target named is Caspase-6 (Homo sapiens) (UniProt P55212). The assay can be described thus: human caspase-6 inhibitors, dose response, biochemical, VEID-R110 fluorescence, cherry-pick (AID 720632). To be noted: caspase-6, VEID-R110 fluorogenic substrate; at 26 µM (top of the series).

Structures are written as SMILES. Active and inactive are the calls of the source. No rule for the calls is given here.

Caspase-6 (Homo sapiens), sequence (P55212 24-179 limits assumed): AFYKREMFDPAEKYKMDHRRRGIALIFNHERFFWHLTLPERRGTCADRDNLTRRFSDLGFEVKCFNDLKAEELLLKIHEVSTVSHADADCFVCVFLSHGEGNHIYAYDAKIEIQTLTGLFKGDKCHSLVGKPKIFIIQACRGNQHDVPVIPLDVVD
Caspase-6 (Homo sapiens), sequence (P55212 194-293 limits assumed): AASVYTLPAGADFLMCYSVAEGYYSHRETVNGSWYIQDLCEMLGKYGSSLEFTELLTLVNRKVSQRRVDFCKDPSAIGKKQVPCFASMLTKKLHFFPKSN

Turning to `Cc1cnc(NC(=O)c2ccc3c(c2)OCCO3)s1`, the “activity change, negative = inhibition” value was “inactive”. For the compound `COc1cc(CN2CCc3ccccc3C2)cc([N+](=O)[O-])c1O`, the “activity change, negative = inhibition” value is “inactive”. As for `CCC(=O)Nc1ccc2c(c1)OC[C@H](C)N(C(=O)CC)C[C@@H](C)[C@H](OC)CN(C)C2=O`, the “activity change, negative = inhibition” value was “inactive”. The entry for `Oc1c(CN2CCCCC2)ccc2cccnc12` is “inactive”; for `CC1(Oc2cnc(Cl)c3ccccc23)CCN(Cc2ccc(OC(F)(F)F)cc2)C1` (centres undefined) it is “inactive”; for `CO[C@@H]1CN(C)C(=O)c2ccc(NC(=O)C3CC3)cc2OC[C@@H](C)N(CC2CCOCC2)C[C@@H]1C` it is “inactive”. The entry for `COc1ccc(NC(=O)C(F)(OC)C(F)(F)F)c(OC)c1` (centres undefined) is “inactive”; for `COCC(=O)Nc1ccc2c(c1)OC[C@H](C)N(CC1CC1)C[C@@H](C)[C@@H](OC)CN(C)C2=O` it is “inactive”; for `O=C(O)c1ccc(N2C(=O)CC(N3CCN(c4cccc(C(F)(F)F)c4)CC3)C2=O)cc1` (centres undefined) it is “inactive”. As for `O=C1CC(N2CCSCC2)C(=O)N1c1cccc(Cl)c1` (centres undefined), the entry is “inactive”; as for `CO[C@H]1CN(C)C(=O)c2ccc(NC(=O)C3CC3)cc2OC[C@@H](C)N(Cc2ccccc2)C[C@H]1C`, “inactive”. Take `CN1c2ccccc2Sc2cc(N)ccc21`: the “activity change, negative = inhibition” value is “inactive”. The entry for `COc1ccc(CN=C(N)N=C(N)N)cc1Cl` is “inactive”. As for `CCCN1C[C@H](C)[C@H](OC)CN(C)C(=O)c2ccc(NC(=O)CC)cc2OC[C@@H]1C`, the entry is “inactive”; as for `COc1ccccc1C(=O)Nc1ccc2c(c1)OC[C@H](C)N(CC1CC1)C[C@H](C)[C@H](OC)CN(C)C2=O`, “inactive”. As for `O=C(Nc1ccccc1)c1nc[nH]c1C(=O)Nc1ccccc1F`, the entry is “inactive”; as for `CCC(=O)Nc1ccc2c(c1)OC[C@H](C)N(C(=O)C1CC1)C[C@H](C)[C@@H](OC)CN(C)C2=O`, “inactive”.

`O=C(COC(=O)c1ccc([N+](=O)[O-])o1)Nc1ccc2c(c1)OC(F)(F)O2`: the “activity change, negative = inhibition” value was “inactive”. As for `Cc1csc(=O)n1CCC(=O)OCc1nnc(-c2ccc([N+](=O)[O-])cc2)o1`, the “activity change, negative = inhibition” value is “inactive”.

With `CC1CCCN(CC(O)COC(c2ccccc2)c2ccccc2)C1` (centres undefined), the “activity change, negative = inhibition” value is “inactive”.

In the case of `O=C(NC(=S)NNS(=O)(=O)c1ccccc1)c1ccccc1[N+](=O)[O-]`, the “activity change, negative = inhibition” value was “inactive”. On to `CCCC(=O)Nc1ccc2c(c1)OC[C@@H](C)N(C(=O)CC)C[C@@H](C)[C@@H](OC)CN(C)C2=O`, for which the “activity change, negative = inhibition” value was “inactive”.

On to `Cc1ccc2c(c1)c1c(n2CC(O)CN2CCC(C)CC2)CCCC1` (centres undefined), for which the “activity change, negative = inhibition” value is “inactive”.

With `O=C(N/N=C\c1ccc([N+](=O)[O-])o1)c1cncc(Br)c1`, the “activity change, negative = inhibition” value is “inactive”. Turning to `COc1cc(OC)cc(C(=O)NNC(=O)CNC(=O)c2cccs2)c1`, the “activity change, negative = inhibition” value is “inactive”. For `O=C1NC2=C(C(=O)CCC2)C(c2cccc([N+](=O)[O-])c2)N1` (centres undefined), the “activity change, negative = inhibition” value is “inactive”. As for `CO[C@@H]1CN(C)C(=O)c2ccc(NC(=O)c3ccccc3)cc2OC[C@H](C)N(C(=O)C2CC2)C[C@@H]1C`, the entry is “inactive”; as for `CO[C@H]1CN(C)C(=O)c2ccc(NC(=O)C3CC3)cc2OC[C@H](C)N(Cc2cccc(F)c2)C[C@H]1C`, “inactive”; as for `COc1ccccc1CNC(=O)COC(=O)c1ccc([N+](=O)[O-])o1`, “inactive”. As for `CCCC(=O)Nc1ccc2c(c1)OC[C@H](C)N(Cc1ccc(F)cc1)C[C@H](C)[C@@H](OC)CN(C)C2=O`, the entry is “inactive”; as for `Cc1ccccc1NC(=O)C1CCCN(S(=O)(=O)c2cnc[nH]2)C1` (centres undefined), “inactive”; as for `C[C@@H]1CN([C@@H](C)CO)C(=O)Cc2cc(N(C)C)ccc2O[C@@H]1CN(C)Cc1ccccc1`, “inactive”. The entry for `Cc1noc(C)c1COc1ccccc1C(=O)N(C)CC(=O)Nc1ccc(F)c(F)c1F` is “inactive”; for `Oc1ccc(/C=N/Nc2ccnc3cc(Cl)ccc23)c(O)c1` it is “inactive”; for `C#CC(C)(C)NC(=O)c1ccc(-c2ccccc2F)cc1` it is “inactive”. On to `COc1nc(C)c2cc(C)oc2n1`, for which the “activity change, negative = inhibition” value was “inactive”. On to `CN1CCN(c2cc(CNC[C@H]3O[C@@H](n4cnc5c(=O)[nH]c(N)nc54)[C@H](O)[C@@H]3O)ccc2F)CC1`, for which the “activity change, negative = inhibition” value was “inactive”. The entry for `COc1ccc2oc(C(=O)N3CCN(c4ncccn4)CC3)c(C)c2c1` is “inactive”; for `CC(=O)N1CCc2c(sc(NC(=O)C3CCCCC3)c2C(N)=O)C1` it is “inactive”.
